Data from patent US20220117938A1, “COMBINATON THERAPY WITH A DON PRODRUG AND AN IMMUNE CHECKPOINT INHIBITOR” (DRACEN PHARMACEUTICALS, INC., priority 2019, published 2022).

Experiments:
MC-38 tumors = assay: Anti-tumor efficacy of Compound 1 with and without anti-PD-1 in the subcutaneous MC-38 model (Example 4); assay type: in vivo, Mus musculus; details: for MST: endpoint tumor volume 2000 mm^3; for T/C / TGI: Day 12
Procedure: Tumor sizes were measured three times a week in two dimensions using a caliper, and the volume expressed in mm^3 using the formula: V=0.5 a×b^2 where a and b are the long and short diameters of the tumor, respectively. The tumor sizes were then used for the calculations of both tumor growth inhibition (TGI) and T/C values.
TGI is calculated for each group using the formula: […]
TVTreatment_DayN is the average tumor volume of a treatment group on a given day, TVTreatment_Day0 is the average tumor volume of the treatment group on the first day of treatment, TVVehicle_DayN is the average tumor volume of the vehicle control group on a given day, and TVVehicle_Day0 is the average tumor volume of the vehicle group on the first day of treatment.
The T/C value (in percent) is an indication of antitumor effectiveness, T/C (%)=RTVTreatment/RTVControl×100% (RTVTreatment: the mean RTV of the treatment group; RTVControl: the mean RTV of the vehicle treated group). RTV (relative tumor volume)=TVDayN/TVDay0. TVDayN and TVDay0 is the tumor volume on day N and Day 0 respectively. T/C (%)≤42% is considered as significant antitumor activity and <10% is considered as highly significant antitumor activity by the National Cancer Institute criteria.
Animal survival curve: When an individual animal reached to the termination endpoint (TV>2000 mm^3), the mouse was euthanized. The time from treatment initiation to the termination was deemed as its survival time. Survival curve was plotted by Kaplan-Meier method. Median survival time (MST) was calculated for each group. Increase of life span (ILS) was calculated according to the following formula: […]
ILS (%)>25% is considered as a biologically significant survival benefit.
The tumor volume between different groups was analyzed by two-way repeated measures ANOVA. Dunnett post hoc test was used for the comparisons with vehicle group. All data analyzed using GraphPad Prism 6.0. P<0.05 is considered to be statistically significant.
Female C57BL/6 mice were inoculated subcutaneously at right flank with MC-38 cells for tumor development. Six days after tumor inoculation, 64 mice with tumor size ranging from 50-100 mm^3 (average tumor size 71 mm^3) were selected and assigned into 8 groups using stratified randomization with 8 mice per group based upon their tumor volumes. The treatments were started from the day of randomization (defined as D0), Group 1 was treated with Vehicle (Tween 80:Ethanol:Saline—5:5:90 v/v/v), s.c., qd×14, Group 2 was treated with Anti-PD-1 10 mg/kg i.p. q4d×4, Group 3 was treated with Compound 1 3 mpk qd×5, sc followed by 1 mpk, qd×9, sc, Group 4 was treated with Compound 1 3 mpk qd×5, sc followed by 1 mpk, qd×9, sc+anti PD-1 q4d×4, ip, Group 5 was treated with Compound 1 1 mpk qd×5, sc followed by 0.3 mpk, qd×9, sc, Group 6 was treated with Compound 1 1 mpk qd×5, sc followed by 0.3 mpk, qd×9, sc+anti PD-1 q4d×4, ip, Group 7 was treated with Compound 1 0.3 mpk qd×5, sc followed by 0.1 mpk, qd×9, sc and Group 8 was treated with Compound 1 0.3 mpk qd×5, sc followed by 0.1 mpk, qd×9, sc+anti PD-1 q4d×4, ip. The tumor sizes were measured three times per week during the treatment. The entire study was terminated on D56 after start of the treatment. […]
The MC-38 tumor cells were maintained in vitro as a monolayer culture in DMEM medium supplemented with 10% heat inactivated fetal bovine serum and 100 μg/mL penicillin streptomycin at 37° C. in an atmosphere of 5% CO2 in air. The tumor cells were routinely subcultured twice weekly by trypsin-EDTA treatment. The cells growing to a confluency around 70%-80% were harvested and counted for tumor inoculation. The cultured MC-38 were harvested, re-suspended in base medium at a density of 1×10^7 cells/mL with viability >90%. Each mouse was inoculated subcutaneously at the right flank with 1×10^6 cells in 0.1 ml base medium for tumor development. […]

H22 tumors = assay: Anti-tumor efficacy of Compound 1 with and without anti-PD-L1 in the H22 subcutaneous syngeneic model (Example 6); assay type: in vivo, mice
Procedure: Female BALB/c mice were inoculated subcutaneously at right flank with H22 tumor cells for tumor development. Treatment began on Day 6 post tumor inoculation and the mice were treated for 21 days. Tumor and weight measurements were continued for the duration of the study, and the survival was recorded until Day 106. The results are summarized Table 6-1, Table 6-2, and FIG. 23. In all cases the dosing volume was 10 ml/kg. PD-L1 antibody was obtained from Bioxcell.

[1] = 0.7 mg/kg 5-day ON 2-day OFF x 3 cycles
[2] = 1.4 mg/kg 5-day ON 2-day OFF x 3 cycles
[3] = Day 26, 0.7 mg/kg 5-day ON 2-day OFF x 3 cycles
[4] = Day 26, 1.4 mg/kg 5-day ON 2-day OFF x 3 cycles

SMILES: CC(=O)N[C@@H](Cc1c[nH]c2ccccc12)C(=O)N[C@@H](CCC(=O)C=[N+]=[N-])C(=O)OC(C)C [Compound 1, Isopropyl (S)-2-((S)-2-acetamido-3-(1H-indol-3-yl)propanamido)-6-diazo-5-oxohexanoate]
- ILS (MC-38 tumors; Cpd. 1 0.3 mpk/0.1 mpk): 114.29%
- RTV at day 12 (MC-38 tumors; Cpd. 1 0.3 mpk/0.1 mpk): 1.67 ± 0.03
- MST (MC-38 tumors; Cpd. 1 0.3 mpk/0.1 mpk): 30 days
- ILS (MC-38 tumors; Cpd. 1 1 mpk/0.3 mpk): 135.71%
- RTV at day 12 (MC-38 tumors; Cpd. 1 1 mpk/0.3 mpk): 0.36 ± 0.09
- MST (MC-38 tumors; Cpd. 1 1 mpk/0.3 mpk): 33 days
- ILS (MC-38 tumors; Cpd. 1 3 mpk/1 mpk): 135.71%
- RTV at day 12 (MC-38 tumors; Cpd. 1 3 mpk/1 mpk): 0.11 ± 0.03
- MST (MC-38 tumors; Cpd. 1 3 mpk/1 mpk): 33 days
- T/C (MC-38 tumors; Cpd. 1 0.3 mpk/0.1 mpk): 7.02%
- TGI (MC-38 tumors; Cpd. 1 0.3 mpk/0.1 mpk): 97.27%
- T/C (MC-38 tumors; Cpd. 1 1 mpk/0.3 mpk): 1.51%
- TGI (MC-38 tumors; Cpd. 1 1 mpk/0.3 mpk): 102.87%
- T/C (MC-38 tumors; Cpd. 1 3 mpk/1 mpk): 0.46%
- TGI (MC-38 tumors; Cpd. 1 3 mpk/1 mpk): 103.98%
- Cure Rate (H22 tumors; [1]): 0%
- MST (H22 tumors; [1]): 45 days
- Cure Rate (H22 tumors; [2]): 0%
- MST (H22 tumors; [2]): 47 days
- TGI (H22 tumors; Compound 1 alone 0.7 mg/kg, p<0.001): ~80%
- TGI (H22 tumors; Compound 1 alone 1.4 mg/kg, p<0.001): ~80%
- BWC (H22 tumors; [3]): 0%
- Mean Tumor Vol (H22 tumors; [3]): 529 ± 64 mm^3
- TGI (H22 tumors; [3]): 79%
- BWC (H22 tumors; [4]): 7%
- Mean Tumor Vol (H22 tumors; [4]): 465 ± 133 mm^3
- TGI (H22 tumors; [4]): 82%
